{"source": "patent US20160120886A1", "about": "“PREVENTION, TREATMENT, AND AMELIORATION OF RADIATION INDUCED ENTERITIS” (priority 2004, published 2016)", "key": {"[1]": {"details": "cited from earlier work"}, "[2]": {"details": "cited from earlier work", "remark": "listed apart in the source"}, "radiation enteritis [3]": {"test_system": "radiation enteritis", "assay": "Clinical trial of balsalazide to treat radiation enteritis", "type": "in vivo, human", "details": "patients on pelvic radiotherapy", "procedure": "Subjects included patients treated for FIGO stage IB2-IVA cervical cancer, AJCC Stage T1-3 MO prostate cancer, or biochemical failure after prostatectomy. Radiotherapy was delivered to the subjects in a 4-field technique to at least 40 Gy, and tumor dose was at least 64 Gy for prostate patients, and 75 Gy for cervical patients. Brachytherapy boost was permitted. Patients were given 2250 mg of BSZ or an Identical-appearing placebo twice daily beginning 5 days prior to radiotherapy, and continuing for 2 weeks after completion. Toxicities were graded weekly according to NCI Common Toxicity Criteria, for each of the following: proctitis, diarrhea, dysuria, weight loss, fatigue, nausea, and vomiting. A symptom index was formulated for each toxicity consisting of the toxicity's numeric grade multiplied by the number of days it was experienced, and summed for each grade. Thus, a patient with 7 days of grade 1 proctitis, 14 days of grade 2 proctitis, and 7 days of grade 3 proctitis [(1*7)+(2*14)+(3*7)] would have a proctitis index of 56. A higher Index indicates worse toxicity. Patients were randomized by sealed envelope decision, with only the protocol coordinator aware of the results of randomization. After randomization, the study drug or identical-appearing placebo was given to the study subject with instructions concerning dosage and administration schedule. As stated above, the toxicity was assessed weekly during the course of radiation treatment, then for a period of at least six months after completion of radiotherapy. National Cancer Institute (NCI) common toxicity criteria were used to grade the severity of radiation-induced acute bowel toxicity. Diarrhea was used as the primary endpoint and was assessed as follows: Grade 0—no diarrhea or increased stool frequency Grade 1—increase of 2-3 stools/day Grade 2—increase of 4-6 stools/day or nocturnal stool Grade 3—increase of 7-9 stools/day or incontinence Grade 4—increase of >10 stools/day or grossly bloody diarrhea Documented baseline hemorrhoidal bleeding was not considered grade 4. A secondary endpoint included proctitis, which was assessed using guidelines outlined by the NCI Common Toxicity Criteria, including: Grade 0—None Grade 1—Increased stool frequency, occasional blood-streaked stools or rectal discomfort, not requiring medication Grade 2—increased stool frequency, bleeding, mucous discharge or rectal discomfort requiring medication Grade 3—increased stool frequency/diarrhea requiring parenteral support, rectal bleeding requiring transfusion, or persistent mucus discharge necessitating the use of pads Grade 4—perforation, bleeding or necrosis, or other life-threatening complications requiring surgical intervention"}, "radiation enteritis [4]": {"test_system": "radiation enteritis", "details": "related 5-ASA drugs; cited from earlier work"}, "[5]": {"details": "2250 mg twice daily, versus placebo"}}}
{"smiles": "O=C(O)CCNC(=O)c1ccc(/N=N/c2ccc(O)c(C(=O)O)c2)cc1", "note": "[balsalazide disodium]", "values": [{"measurement": "abdominal pain (only statistically significant side effect), patients receiving the drug", "setting": "[1]; versus 0% in those receiving placebo", "result": 11, "unit": "%"}, {"measurement": "water solubility", "setting": "[2]", "result": "highly water-soluble"}]}
{"smiles": "O=C(O)CCNC(=O)c1ccc(/N=N/c2ccc(O)c(C(=O)O)c2)cc1", "note": "[balsalazide]", "values": [{"measurement": "proctitis mean index (symptom index: toxicity grade x days, summed)", "setting": "radiation enteritis [3]; 2250 mg twice daily from 5 days prior to radiotherapy until 2 weeks after, vs. 77 in placebo (p=0.04), higher index = worse", "result": 35}, {"measurement": "nausea/vomiting seen", "setting": "radiation enteritis [3]; 2250 mg twice daily, 1 on placebo", "result": 2, "unit": "patients"}, {"measurement": "patients experiencing grade 4 diarrhea", "setting": "radiation enteritis [3]; 2250 mg twice daily, 2 placebo patients did", "result": "No patient"}, {"measurement": "fatigue index", "setting": "radiation enteritis [3]; 2250 mg twice daily, placebo averaged 49", "result": 20}, {"measurement": "average weight change", "setting": "radiation enteritis [3]; 2250 mg twice daily, placebo lost greater than 3 pounds", "result": "gained weight"}, {"measurement": "all toxicities except nausea/vomiting", "setting": "radiation enteritis [3]; [5]", "result": "appreciably lower"}, {"measurement": "dysuria", "setting": "radiation enteritis [3]; [5]", "result": "appreciably lower"}, {"measurement": "adverse events reported in trials (headache, nausea, diarrhea, flatulence, fatigue)", "setting": "[1]; versus placebo", "result": "comparable to those seen in patients receiving placebo"}]}
{"smiles": "Nc1ccc(O)c(C(=O)O)c1", "note": "[mesalamine, 5-aminosalicylic acid]", "values": [{"measurement": "outcome in clinical trials for radiation enteritis", "setting": "radiation enteritis [4]", "result": "failure"}]}
{"smiles": "O=C(O)c1cc(/N=N/c2ccc(O)c(C(=O)O)c2)ccc1O", "note": "[osalazine]", "values": [{"measurement": "outcome in clinical trials for radiation enteritis", "setting": "radiation enteritis [4]", "result": "failure"}]}
